Assay results: patent US20240158446A1, “CYCLIC COMPOUND HAVING SELECTIVE INHIBITORY ACTION ON KRAS OVER HRAS AND NRAS” (CHUGAI SEIYAKU KABUSHIKI KAISHA, priority 2021, published 2024)
Where a SMILES comes first, the peptide text is derived from it. Bridges are numbered along the chain shown (N, C = ends). [ ]: non-standard residue; d: D form. The star is where a group is joined. hPhe(3-Cl-4-CF3) = N[C@@H](CCc1ccc(C(F)(F)F)c(Cl)c1)C(=O)O; NPrPhe(4-CF3) = CCCN[C@@H](Cc1ccc(C(F)(F)F)cc1)C(=O)O; NEtPhe(4-CF3) = CCN[C@@H](Cc1ccc(C(F)(F)F)cc1)C(=O)O; hPhe(3,4-Cl2) = N[C@@H](CCc1ccc(Cl)c(Cl)c1)C(=O)O; NMeGly(cPent) = CN[C@H](C(=O)O)C1CCCC1; Hyp = O=C(O)[C@@H]1C[C@@H](O)CN1; NMeD = CN[C@@H](CC(=O)O)C(=O)O; NMeL = CN[C@@H](CC(C)C)C(=O)O; Ac6c = NC1(C(=O)O)CCCCC1; Morpholide = C1CN(*)CCO1; NMeA = CN[C@@H](C)C(=O)O; Ac5c = NC1(C(=O)O)CCCC1; Aze = O=C(O)[C@@H]1CCN1; Ac3c = NC1(C(=O)O)CC1; Aib = CC(C)(N)C(=O)O; Sar = CNCC(=O)O

Columns and labels:
[1] = biological target: GDP-bound HRAS wild-type protein (Homo sapiens, UniProt P01112); assay: Binding to HRAS by surface plasmon resonance (SPR), Single Cycle Kinetics; settings: SPR, GDP-bound HRAS wild-type protein vs GDP-bound KRAS wild-type protein
Sequence of GDP-bound HRAS wild-type protein (P01112 whole entry): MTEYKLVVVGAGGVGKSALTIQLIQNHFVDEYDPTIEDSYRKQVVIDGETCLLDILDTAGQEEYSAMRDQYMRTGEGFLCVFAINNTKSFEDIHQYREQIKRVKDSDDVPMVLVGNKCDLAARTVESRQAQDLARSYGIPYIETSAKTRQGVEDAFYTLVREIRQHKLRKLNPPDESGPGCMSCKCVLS

[2] = biological target: GDP-bound KRAS wild-type protein (Homo sapiens, UniProt P01116); assay: Binding to KRAS by surface plasmon resonance (SPR), Single Cycle Kinetics; settings: SPR Single Cycle Kinetics, GDP-bound KRAS wild-type protein, 1:1 binding model; read-out: KRAS KD
Sequence of GDP-bound KRAS wild-type protein (P01116 whole entry): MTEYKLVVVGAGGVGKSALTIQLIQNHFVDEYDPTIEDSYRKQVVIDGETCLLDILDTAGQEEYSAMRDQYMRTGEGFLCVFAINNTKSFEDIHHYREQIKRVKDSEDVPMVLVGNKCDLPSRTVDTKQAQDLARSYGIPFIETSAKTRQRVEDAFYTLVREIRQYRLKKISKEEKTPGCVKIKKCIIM

[3] = biological target: GDP-bound NRAS wild-type protein (Homo sapiens, UniProt P01111); assay: Binding to NRAS by surface plasmon resonance (SPR), Single Cycle Kinetics; settings: SPR, GDP-bound NRAS wild-type protein vs GDP-bound KRAS wild-type protein
Sequence of GDP-bound NRAS wild-type protein (P01111 whole entry): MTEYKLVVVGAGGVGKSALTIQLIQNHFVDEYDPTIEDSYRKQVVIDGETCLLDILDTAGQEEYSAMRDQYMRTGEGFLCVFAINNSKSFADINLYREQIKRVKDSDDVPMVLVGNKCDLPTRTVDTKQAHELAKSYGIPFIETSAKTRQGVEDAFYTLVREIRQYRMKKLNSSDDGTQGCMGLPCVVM

Row | Structure (SMILES) | HRAS/KRAS (ratio of KD value for HRAS to KD value for KRAS) [1] | Kd [2] | NRAS/KRAS (ratio of KD value for NRAS to KD value for KRAS) [3]
1 | CC[C@H](C)[C@@H]1NC(=O)[C@H](CC(C)C)N(C)C(=O)C[C@@H](C(=O)N2CCOCC2)N(C)C(=O)[C@H](C2CCCC2)N(C)C(=O)C(C)(C)NC(=O)[C@@H]2CCCN2C(=O)[C@H](CCc2ccc(C(F)(F)F)c(Cl)c2)NC(=O)CN(C)C(=O)[C@H](Cc2ccc(C(F)(F)F)cc2)N(CC)C(=O)[C@@H]2CCN2C(=O)[C@H](C)N(C)C1=O [PP0221] ([NMeL]I[NMeA][Aze][NEtPhe(4-CF3)][Sar][hPhe(3-Cl-4-CF3)]P[Aib][NMeGly(cPent)][NMeD]-Morpholide; lactam N-11) | C (A compound having a KD ratio of 0.1 or more and less than 3 is denoted as C) | 0.19 nM | C (A compound having a KD ratio of 0.1 or more and less than 3 is denoted as C)
2 | CC[C@H](C)[C@@H]1NC(=O)[C@H](CC(C)C)N(C)C(=O)C[C@@H](C(=O)N2CCOCC2)N(C)C(=O)[C@H](C2CCCC2)N(C)C(=O)C2(CCCCC2)NC(=O)[C@@H]2CCCN2C(=O)[C@H](CCc2ccc(C(F)(F)F)c(Cl)c2)NC(=O)CN(C)C(=O)[C@H](Cc2ccc(C(F)(F)F)cc2)N(CC)C(=O)[C@@H]2CCN2C(=O)[C@H](C)N(C)C1=O [PP0222] ([NMeL]I[NMeA][Aze][NEtPhe(4-CF3)][Sar][hPhe(3-Cl-4-CF3)]P[Ac6c][NMeGly(cPent)][NMeD]-Morpholide; lactam N-11) | C (A compound having a KD ratio of 0.1 or more and less than 3 is denoted as C) | 0.57 nM | C (A compound having a KD ratio of 0.1 or more and less than 3 is denoted as C)
3 | CC[C@H](C)[C@@H]1NC(=O)[C@H](CC(C)C)N(C)C(=O)C[C@@H](C(=O)N2CCOCC2)N(C)C(=O)[C@H](C2CCCC2)N(C)C(=O)C2(CCCC2)NC(=O)[C@@H]2CCCN2C(=O)[C@H](CCc2ccc(Cl)c(Cl)c2)NC(=O)CN(C)C(=O)[C@H](Cc2ccc(C(F)(F)F)cc2)N(CC)C(=O)[C@@H]2CCN2C(=O)[C@H](C)N(C)C1=O [PP0223] ([NMeL]I[NMeA][Aze][NEtPhe(4-CF3)][Sar][hPhe(3,4-Cl2)]P[Ac5c][NMeGly(cPent)][NMeD]-Morpholide; lactam N-11) | C (A compound having a KD ratio of 0.1 or more and less than 3 is denoted as C) | 0.4 nM | C (A compound having a KD ratio of 0.1 or more and less than 3 is denoted as C)
4 | CCCN1C(=O)[C@@H]2CCN2C(=O)[C@H](C)N(C)C(=O)[C@H]([C@@H](C)CC)NC(=O)[C@H](CC(C)C)N(C)C(=O)C[C@@H](C(=O)N2CCOCC2)N(C)C(=O)[C@H](C2CCCC2)N(C)C(=O)C2(CC2)NC(=O)[C@@H]2CCCN2C(=O)[C@H](CCc2ccc(C(F)(F)F)c(Cl)c2)NC(=O)CN(C)C(=O)[C@@H]1Cc1ccc(C(F)(F)F)cc1 [PP0224] ([NMeL]I[NMeA][Aze][NPrPhe(4-CF3)][Sar][hPhe(3-Cl-4-CF3)]P[Ac3c][NMeGly(cPent)][NMeD]-Morpholide; lactam N-11) | B (a compound having 3 or more and less than 10 is denoted as B) | 0.22 nM | C (A compound having a KD ratio of 0.1 or more and less than 3 is denoted as C)
5 | CCCN1C(=O)[C@@H]2CCN2C(=O)[C@H](C)N(C)C(=O)[C@H]([C@@H](C)CC)NC(=O)[C@H](CC(C)C)N(C)C(=O)C[C@@H](C(=O)N2CCOCC2)N(C)C(=O)[C@H](C2CCCC2)N(C)C(=O)C(C)(C)NC(=O)[C@@H]2CCCN2C(=O)[C@H](CCc2ccc(C(F)(F)F)c(Cl)c2)NC(=O)CN(C)C(=O)[C@@H]1Cc1ccc(C(F)(F)F)cc1 [PP0225] ([NMeL]I[NMeA][Aze][NPrPhe(4-CF3)][Sar][hPhe(3-Cl-4-CF3)]P[Aib][NMeGly(cPent)][NMeD]-Morpholide; lactam N-11) | C (A compound having a KD ratio of 0.1 or more and less than 3 is denoted as C) | 0.23 nM | C (A compound having a KD ratio of 0.1 or more and less than 3 is denoted as C)
6 | CCCN1C(=O)[C@@H]2CCN2C(=O)[C@H](C)N(C)C(=O)[C@H]([C@@H](C)CC)NC(=O)[C@H](CC(C)C)N(C)C(=O)C[C@@H](C(=O)N2CCOCC2)N(C)C(=O)[C@H](C2CCCC2)N(C)C(=O)C2(CCCCC2)NC(=O)[C@@H]2CCCN2C(=O)[C@H](CCc2ccc(C(F)(F)F)c(Cl)c2)NC(=O)CN(C)C(=O)[C@@H]1Cc1ccc(C(F)(F)F)cc1 [PP0226] ([NMeL]I[NMeA][Aze][NPrPhe(4-CF3)][Sar][hPhe(3-Cl-4-CF3)]P[Ac6c][NMeGly(cPent)][NMeD]-Morpholide; lactam N-11) | B (a compound having 3 or more and less than 10 is denoted as B) | 0.47 nM | C (A compound having a KD ratio of 0.1 or more and less than 3 is denoted as C)
7 | CCCN1C(=O)[C@@H]2CCN2C(=O)[C@H](C)N(C)C(=O)[C@H]([C@@H](C)CC)NC(=O)[C@H](CC(C)C)N(C)C(=O)C[C@@H](C(=O)N2CCOCC2)N(C)C(=O)[C@H](C2CCCC2)N(C)C(=O)C2(CCCC2)NC(=O)[C@@H]2CCCN2C(=O)[C@H](CCc2ccc(Cl)c(Cl)c2)NC(=O)CN(C)C(=O)[C@@H]1Cc1ccc(C(F)(F)F)cc1 [PP0227] ([NMeL]I[NMeA][Aze][NPrPhe(4-CF3)][Sar][hPhe(3,4-Cl2)]P[Ac5c][NMeGly(cPent)][NMeD]-Morpholide; lactam N-11) | B (a compound having 3 or more and less than 10 is denoted as B) | 0.26 nM | C (A compound having a KD ratio of 0.1 or more and less than 3 is denoted as C)
8 | CCCN1C(=O)[C@@H]2CCN2C(=O)[C@H](C)N(C)C(=O)[C@H]([C@@H](C)CC)NC(=O)[C@H](CC(C)C)N(C)C(=O)C[C@@H](C(=O)N2CCOCC2)N(C)C(=O)[C@H](C2CCCC2)N(C)C(=O)C2(CCCC2)NC(=O)[C@@H]2C[C@@H](OCC)CN2C(=O)[C@H](CCc2ccc(C(F)(F)F)c(Cl)c2)NC(=O)CN(C)C(=O)[C@@H]1Cc1ccc(C(F)(F)F)cc1 [PP0228] ([NMeL]I[NMeA][Aze][NPrPhe(4-CF3)][Sar][hPhe(3-Cl-4-CF3)][Hyp](Et)[Ac5c][NMeGly(cPent)][NMeD]-Morpholide; lactam N-11) | B (a compound having 3 or more and less than 10 is denoted as B) | 0.037 nM | C (A compound having a KD ratio of 0.1 or more and less than 3 is denoted as C)
9 | CCCN1C(=O)CN(C)C(=O)CN(C)C(=O)[C@H]([C@@H](C)CC)NC(=O)[C@H](CC(C)C)N(C)C(=O)C[C@@H](C(=O)N2CCOCC2)N(C)C(=O)[C@H](C2CCCC2)N(C)C(=O)C2(CC2)NC(=O)[C@@H]2CCCN2C(=O)[C@H](CCc2ccc(C(F)(F)F)c(Cl)c2)NC(=O)CN(C)C(=O)[C@@H]1Cc1ccc(C(F)(F)F)cc1 [PP0229] ([NMeL]I[Sar][Sar][NPrPhe(4-CF3)][Sar][hPhe(3-Cl-4-CF3)]P[Ac3c][NMeGly(cPent)][NMeD]-Morpholide; lactam N-11) | B (a compound having 3 or more and less than 10 is denoted as B) | 0.25 nM | B (a compound having 3 or more and less than 10 is denoted as B)
10 | CCCN1C(=O)CN(C)C(=O)CN(C)C(=O)[C@H]([C@@H](C)CC)NC(=O)[C@H](CC(C)C)N(C)C(=O)C[C@@H](C(=O)N2CCOCC2)N(C)C(=O)[C@H](C2CCCC2)N(C)C(=O)C(C)(C)NC(=O)[C@@H]2CCCN2C(=O)[C@H](CCc2ccc(C(F)(F)F)c(Cl)c2)NC(=O)CN(C)C(=O)[C@@H]1Cc1ccc(C(F)(F)F)cc1 [PP0230] ([NMeL]I[Sar][Sar][NPrPhe(4-CF3)][Sar][hPhe(3-Cl-4-CF3)]P[Aib][NMeGly(cPent)][NMeD]-Morpholide; lactam N-11) | C (A compound having a KD ratio of 0.1 or more and less than 3 is denoted as C) | 0.39 nM | B (a compound having 3 or more and less than 10 is denoted as B)
11 | CCCN1C(=O)CN(C)C(=O)CN(C)C(=O)[C@H]([C@@H](C)CC)NC(=O)[C@H](CC(C)C)N(C)C(=O)C[C@@H](C(=O)N2CCOCC2)N(C)C(=O)[C@H](C2CCCC2)N(C)C(=O)C2(CCCCC2)NC(=O)[C@@H]2CCCN2C(=O)[C@H](CCc2ccc(C(F)(F)F)c(Cl)c2)NC(=O)CN(C)C(=O)[C@@H]1Cc1ccc(C(F)(F)F)cc1 [PP0231] ([NMeL]I[Sar][Sar][NPrPhe(4-CF3)][Sar][hPhe(3-Cl-4-CF3)]P[Ac6c][NMeGly(cPent)][NMeD]-Morpholide; lactam N-11) | C (A compound having a KD ratio of 0.1 or more and less than 3 is denoted as C) | 0.55 nM | B (a compound having 3 or more and less than 10 is denoted as B)
12 | CCCN1C(=O)CN(C)C(=O)CN(C)C(=O)[C@H]([C@@H](C)CC)NC(=O)[C@H](CC(C)C)N(C)C(=O)C[C@@H](C(=O)N2CCOCC2)N(C)C(=O)[C@H](C2CCCC2)N(C)C(=O)C2(CCCC2)NC(=O)[C@@H]2CCCN2C(=O)[C@H](CCc2ccc(Cl)c(Cl)c2)NC(=O)CN(C)C(=O)[C@@H]1Cc1ccc(C(F)(F)F)cc1 [PP0232] ([NMeL]I[Sar][Sar][NPrPhe(4-CF3)][Sar][hPhe(3,4-Cl2)]P[Ac5c][NMeGly(cPent)][NMeD]-Morpholide; lactam N-11) | B (a compound having 3 or more and less than 10 is denoted as B) | 0.28 nM | B (a compound having 3 or more and less than 10 is denoted as B)
